Columns and labels:
Experiment in all cases: relative viability (nuclei count vs DMSO), 5 days (fraction); higher = more cells survive
[1] = tested on: 201T
Procedure, shortened: (§1)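 Lung cancer cell lines were seeded in 1536-well plates and dosed by pin tool the next day, with either a single drug or a fixed anchor-drug dose combined with five library-drug doses (not always all listed) spaced in √10 steps. Five days later, one step fixed the cells and stained their nuclei (final 0.05% Triton X-100, 1% formaldehyde, 1 ug/ml Hoechst), and nuclei were counted on 4× images. Relative viability is the nuclei count in treated wells divided by the count in vehicle wells, and each value is the median of duplicate plates.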

[2] = tested on: ABC-1
Procedure, shortened: as §1

[3] = tested on: COR-L 105
Procedure, shortened: as §1

[4] = tested on: COR-L23
Procedure, shortened: as §1

[5] = tested on: EKVX
Procedure, shortened: as §1

[6] = tested on: EPLC-272H
Procedure, shortened: as §1

[7] = tested on: H3255
Procedure, shortened: as §1

[8] = tested on: HCC-15
Procedure, shortened: as §1

[9] = tested on: HCC-44
Procedure, shortened: as §1

[10] = tested on: HCC-827
Procedure, shortened: as §1

[11] = tested on: LCLC-103H
Procedure, shortened: as §1

[12] = tested on: NCI-H1437
Procedure, shortened: as §1

[13] = tested on: NCI-H1650
Procedure, shortened: as §1

[14] = tested on: NCI-H1651
Procedure, shortened: as §1

[15] = tested on: NCI-H1792
Procedure, shortened: as §1

[16] = tested on: NCI-H1975
Procedure, shortened: as §1

[17] = tested on: NCI-H2087
Procedure, shortened: as §1

[18] = tested on: NCI-H358
Procedure, shortened: as §1

[19] = tested on: NCI-H520
Procedure, shortened: as §1

[20] = tested on: NCI-H647
Procedure, shortened: as §1

[21] = tested on: NCI-H661
Procedure, shortened: as §1

[22] = tested on: NCI-H727
Procedure, shortened: as §1

[23] = tested on: UMC-11
Procedure, shortened: as §1

## O=c1[nH]c2ccccc2n1C1CCN(CCCC(c2ccc(F)cc2)c2ccc(F)cc2)CC1 [Pimozide] + O=C(c1cc(Cc2n[nH]c(=O)c3ccccc23)ccc1F)N1CCN(C(=O)C2CC2)CC1 [Olaparib] (partner 8 µM)
[1]; first compound 0.08 µM
  relative viability: 0.876
[1]; first compound 0.253 µM
  relative viability: 0.836
[1]; first compound 0.8 µM
  relative viability: 0.807
[1]; first compound 2.53 µM
  relative viability: 0.821
[1]; first compound 8 µM
  relative viability: 0.719
[2]; first compound 0.08 µM
  relative viability: 0.782
[2]; first compound 0.253 µM
  relative viability: 0.975
[2]; first compound 0.8 µM
  relative viability: 1.21
[2]; first compound 2.53 µM
  relative viability: 0.618
[2]; first compound 8 µM
  relative viability: 0.477
[3]; first compound 0.08 µM
  relative viability: 0.664
[3]; first compound 0.253 µM
  relative viability: 0.659
[3]; first compound 0.8 µM
  relative viability: 0.83
[3]; first compound 2.53 µM
  relative viability: 0.696
[3]; first compound 8 µM
  relative viability: 0.664
[4]; first compound 0.08 µM
  relative viability: 0.325
[4]; first compound 0.253 µM
  relative viability: 0.308
[4]; first compound 0.8 µM
  relative viability: 0.386
[4]; first compound 2.53 µM
  relative viability: 0.383
[4]; first compound 8 µM
  relative viability: 0.336
[5]; first compound 0.253 µM
  relative viability: 0.783
[5]; first compound 0.8 µM
  relative viability: 0.823
[5]; first compound 2.53 µM
  relative viability: 0.854
[5]; first compound 8 µM
  relative viability: 0.795
[6]; first compound 0.08 µM
  relative viability: 0.869
[6]; first compound 0.253 µM
  relative viability: 0.709
[6]; first compound 0.8 µM
  relative viability: 0.847
[6]; first compound 2.53 µM
  relative viability: 0.554
[6]; first compound 8 µM
  relative viability: 0.646
[7]; first compound 0.253 µM
  relative viability: 0.511
[7]; first compound 0.8 µM
  relative viability: 0.504
[7]; first compound 2.53 µM
  relative viability: 0.523
[7]; first compound 8 µM
  relative viability: 0.59
[8]; first compound 0.08 µM
  relative viability: 0.72
[8]; first compound 0.253 µM
  relative viability: 0.672
[8]; first compound 0.8 µM
  relative viability: 0.717
[8]; first compound 2.53 µM
  relative viability: 0.712
[8]; first compound 8 µM
  relative viability: 0.738
[9]; first compound 0.08 µM
  relative viability: 1
[9]; first compound 0.253 µM
  relative viability: 1.02
[9]; first compound 0.8 µM
  relative viability: 0.938
[9]; first compound 2.53 µM
  relative viability: 0.973
[9]; first compound 8 µM
  relative viability: 0.931
[10]; first compound 0.253 µM
  relative viability: 0.627
[10]; first compound 0.8 µM
  relative viability: 0.7
[10]; first compound 2.53 µM
  relative viability: 0.747
[10]; first compound 8 µM
  relative viability: 0.678
[11]; first compound 0.08 µM
  relative viability: 0.782
[11]; first compound 0.253 µM
  relative viability: 0.721
[11]; first compound 0.8 µM
  relative viability: 0.722
[11]; first compound 2.53 µM
  relative viability: 0.695
[11]; first compound 8 µM
  relative viability: 0.72
[12]; first compound 0.08 µM
  relative viability: 0.615
[12]; first compound 0.253 µM
  relative viability: 0.616
[12]; first compound 0.8 µM
  relative viability: 0.6
[12]; first compound 2.53 µM
  relative viability: 0.573
[12]; first compound 8 µM
  relative viability: 0.463
[13]; first compound 0.08 µM
  relative viability: 0.775
[13]; first compound 0.253 µM
  relative viability: 0.664
[13]; first compound 0.8 µM
  relative viability: 0.762
[13]; first compound 2.53 µM
  relative viability: 0.962
[13]; first compound 8 µM
  relative viability: 0.805
[14]; first compound 0.08 µM
  relative viability: 0.203
[14]; first compound 0.253 µM
  relative viability: 0.189
[14]; first compound 0.8 µM
  relative viability: 0.177
[14]; first compound 2.53 µM
  relative viability: 0.182
[14]; first compound 8 µM
  relative viability: 0.187
[15]; first compound 0.08 µM
  relative viability: 0.298
[15]; first compound 0.253 µM
  relative viability: 0.452
[15]; first compound 0.8 µM
  relative viability: 0.452
[15]; first compound 2.53 µM
  relative viability: 0.406
[15]; first compound 8 µM
  relative viability: 0.375
[16]; first compound 0.08 µM
  relative viability: 0.934
[16]; first compound 0.253 µM
  relative viability: 0.782
[16]; first compound 0.8 µM
  relative viability: 0.858
[16]; first compound 2.53 µM
  relative viability: 0.75
[16]; first compound 8 µM
  relative viability: 0.625
[17]; first compound 0.08 µM
  relative viability: 0.679
[17]; first compound 0.253 µM
  relative viability: 0.582
[17]; first compound 2.53 µM
  relative viability: 0.579
[17]; first compound 8 µM
  relative viability: 0.45
[18]; first compound 0.08 µM
  relative viability: 0.596
[18]; first compound 0.253 µM
  relative viability: 0.583
[18]; first compound 0.8 µM
  relative viability: 0.561
[18]; first compound 2.53 µM
  relative viability: 0.508
[18]; first compound 8 µM
  relative viability: 0.595
[19]; first compound 0.08 µM
  relative viability: 0.33
[19]; first compound 0.253 µM
  relative viability: 0.345
[19]; first compound 0.8 µM
  relative viability: 0.266
[19]; first compound 2.53 µM
  relative viability: 0.312
[19]; first compound 8 µM
  relative viability: 0.276
[20]; first compound 0.08 µM
  relative viability: 0.562
[20]; first compound 0.253 µM
  relative viability: 0.503
[20]; first compound 0.8 µM
  relative viability: 0.391
[20]; first compound 2.53 µM
  relative viability: 0.495
[20]; first compound 8 µM
  relative viability: 0.28
[21]; first compound 0.08 µM
  relative viability: 0.735
[21]; first compound 0.253 µM
  relative viability: 0.699
[21]; first compound 0.8 µM
  relative viability: 0.704
[21]; first compound 2.53 µM
  relative viability: 0.675
[21]; first compound 8 µM
  relative viability: 0.587
[22]; first compound 0.08 µM
  relative viability: 0.731
[22]; first compound 0.253 µM
  relative viability: 0.674
[22]; first compound 0.8 µM
  relative viability: 0.725
[22]; first compound 2.53 µM
  relative viability: 0.549
[22]; first compound 8 µM
  relative viability: 0.739
[23]; first compound 0.08 µM
  relative viability: 0.394
[23]; first compound 0.253 µM
  relative viability: 0.356
[23]; first compound 0.8 µM
  relative viability: 0.417
[23]; first compound 2.53 µM
  relative viability: 0.371
[23]; first compound 8 µM
  relative viability: 0.466

— the supplement of paper PMC10307832
